Row | Compound | melting point
1 | O=C(Nc1ccc(-n2nc(C3CC3)cc2C2CC2)cc1)c1ccc2nn[nH]c2c1 | 240 to 246 °C
2 | CN[C@@H]1CN(c2cc3c(cc2F)c(=O)c(C(=O)O)cn3C(C)(C)C)[C@H]1C (relative stereo) | 194 to 195 °C
3 | CCCCNC(=S)C(C)Oc1ccc2oc3cc(Cl)ccc3c2c1 (configuration not stated) | 101 to 104 °C
4 | O=C(O)Cc1ccc(OCc2ccccc2)c(Cl)c1 | 121 to 123 °C
5 | CCC(Oc1ccc2oc3cc(Cl)ccc3c2c1)C(=O)O (configuration not stated) | 143 to 145 °C
6 | O=C(O)C(=O)c1ccc(OCCOc2cc3ccccc3cc2OCCO)cc1 | 176 to 177 °C
7 | CCCCCCCCCCN(O)C(=O)NCCCC(=O)OC | 89 to 90 °C
8 | c1ccc(CN2CCC(n3cnnc3-c3ccccc3)CC2)cc1 | 111 to 114 °C
9 | CCOC(=O)Cc1cnc(N)s1 | 101 °C
10 | CCOC(=O)C1=C(COCc2nnnn2CCNc2nc(N)n[nH]2)NC(C)=C(C(=O)OC)C1c1cccc(Cl)c1Cl (configuration not stated) | 70 °C
11 | CCCCCCCCCCCCCCCCCCOc1cc(OCCCCC(=O)OC)cc(N(CC(=O)O)CC(=O)O)c1 | 91 to 94 °C
12 | CCOc1cc(-n2c(=O)cc(C(F)(F)F)n(C)c2=O)c(F)cc1Br | 128 °C
13 | O=C(NC1(Cc2ccccc2)C=CCC1)C(Cl)(Cl)Cl (configuration not stated) | 127 to 128 °C
14 | CS(=O)(=O)NCc1ccc([N+](=O)[O-])cc1 | 136 to 139 °C
15 | CCOC(=O)c1ccc(OCCC2CCN(c3cc(Cl)nnc3Cl)CC2)cc1 | 153 to 155 °C
16 | CCOC(=O)C1(Oc2ccc(O)cc2)CCC1 | 118 to 120 °C
17 | CC1=C(O)C(=O)C(C)(CO)O1 (configuration not stated) | 124 to 125 °C
18 | CS(=O)(=O)c1cc(OCc2ccccc2)c(C(=O)O)s1 | 188 to 189 °C
19 | CC(C)S(=O)(=O)c1cc(OCc2ccccc2)c2[nH]nc(N)c2c1 | 179 to 180 °C
20 | COc1ccc2c(c1)c(CNc1ccccc1Oc1ccc(Cl)cc1)cn2C(C)=O | 140 to 141 °C
21 | CC(=O)Nc1ccc(C=CC2=NNC(=O)C(C)(C)C2)cc1 | 255 to 257 °C
22 | O=C(O)C(Cc1ccccc1)C(=O)N[C@H](CO)Cc1c[nH]c2ccccc12 (some centres not stated) | 130 to 131 °C
23 | CSCCNC(=O)N(C)c1cnc(-c2cncc(F)c2)s1 | 117 to 119 °C
24 | CCCCC1OC(=O)c2cc(N)ccc21 (configuration not stated) | 129 to 131 °C
25 | COc1ccc2c(c1)C(c1ccccc1)N(S(C)(=O)=O)N=C2Cc1c(Cl)cncc1Cl (configuration not stated) | 223 to 224 °C
26 | COc1cc(-c2nc3ccc(OCC(C)N(C)C)cc3n2Cc2ccccc2Br)cc(OC)c1OC (configuration not stated) | 152 °C

Row | Compound | melting point
27 | O=CNC1=CCc2cc(Cl)ccc21 | 155 °C
28 | COC(=O)COc1cc(C(=O)OC)nc2cc(Cl)ccc12 | 154 °C
29 | CP(C)(=O)CN1CCC(Oc2c(F)c(F)c(F)c(F)c2F)CC1 | 120 to 123 °C
30 | Cc1cccc2ncc(C(=O)NC(C)(C)C)c(=O)n12 | 164 to 166 °C
31 | CC(=O)N(C)c1c(C(=O)c2ccccc2)[nH]c2cc(Cl)ccc12 | 232 to 235 °C
32 | Cc1c(F)c([N+](=O)[O-])cc2c(=O)c(C(=O)O)cn(-c3cc(N)c(F)cc3F)c12 | 250 to 252 °C
33 | CCOn1nnc2ccc(C(C)n3ccnc3)cc21 (configuration not stated) | 81.1 °C
34 | Cc1ccc(C(=O)N2CCC(CN3CCc4oc5ccccc5c4C3)CC2)cc1 | 140 °C
35 | CC(=O)C(=Cc1cc(O)c(O)c([N+](=O)[O-])c1)c1ccccc1 | 170 to 176 °C
36 | NC(=O)c1n[nH]c2ccc([N+](=O)[O-])cc12 | 221 to 226 °C
37 | N=C(N)NCCCCOc1ccc2c(c1)CC(CC(=O)O)C(=O)N2 (configuration not stated) | 170 to 173 °C
38 | COC(=O)COc1cccc2c1CCC(n1nc(-c3c(-c4ccccc4)nn4ccccc34)ccc1=O)C2=O (configuration not stated) | 175 to 176 °C
39 | CCCc1c(CSc2nnc(SCCCS(=O)CC(=O)O)s2)ccc(C(C)=O)c1O (configuration not stated) | 107 to 110 °C
40 | CC(=O)C1=C(O)C(=C(C)Nc2ccc(OC(N)=O)cc2)C(=O)OC1=O | 213 to 215 °C
41 | N#CCc1c(C(=O)O)cc2ccc3c(c2c1-c1ccc(F)cc1)OCO3 | 230 to 233 °C
42 | C[C@@H]1N=C(c2ccccc2)c2cc(NC(=O)CCCCCCC(=O)O)ccc2N(C)C1=O | 87 to 88 °C
43 | COc1ccccc1N1CCN(CC(O)COc2ccccc2C(=O)O)CC1 (configuration not stated) | 198 to 202 °C
44 | CCOC(=O)c1c(-c2ccncc2)[nH]c(-c2ccncc2)c1CC | 212 to 215 °C
45 | CCc1cc(F)cc2c1OCC(C)(C)CC2(O)c1ccccn1 (configuration not stated) | 100 °C
46 | O=c1[nH]nc2n1CCc1ccccc1C2 | 253 to 261 °C
47 | CC12CC(c3ccc(N)cc3)(C1)C(=O)NC2=O | 216 °C
48 | CC(=C1SC(=O)NC1=O)c1ccc(SCCc2ccccc2)cc1 | 183 to 187 °C
49 | CN(C)CCCCC(=O)c1ccc2c(c1)Cc1cc(C(=O)CCCCN(C)C)ccc1-2 | 124 to 126 °C
50 | CC(C)(C)OC(=O)NOC(=O)OC(C)(C)C | 52 °C
51 | Cc1cc(N2CCCC2)c([N+](=O)[O-])c(Cl)n1 | 151 to 156 °C
52 | Cc1cc2c(cc1-c1cc(C=C3SC(=O)NC3=O)ccc1OC(F)(F)F)C(C(C)C)=CCC2(C)C | 179 °C

Row | Compound | melting point
53 | Cc1ccccc1C(=O)c1cccn1C | 90 to 92.5 °C
54 | CC(C)(O)CN1CCN(c2ccc3nc(-c4cccs4)c(-c4ccncc4)n3n2)CC1 | 165 to 168 °C
55 | C#CCNC(=C[N+](=O)[O-])SC | 131 to 132 °C
56 | NS(=O)(=O)c1cnccc1C1=NOCCO1 | 163 to 164 °C
57 | Oc1ccc(-c2ccc(-c3ccccc3)nc2-c2ccc(OCCN3CCCC3)cc2)cc1 | 176 to 178 °C
58 | O=C(Nc1ccc(Cl)c(Cl)c1)c1c(O)c2ccccc2oc1=O | 227 to 228 °C
59 | Cc1ccc(S(=O)(=O)Oc2ccc(S(=O)(=O)Cc3cccnn3)cc2)cc1 | 161 °C
60 | O=C(C=CC=C(c1ccc(Cl)cc1)c1ccc(Cl)cc1)Nc1ccc(C(=O)O)cc1 | 273 to 276 °C
61 | O=C(NCc1ccccn1)c1ccnc(N2CCN(CC3CC3)C2=O)c1 | 122 to 123 °C
62 | O=C(O)c1c2c(nc3ccc(F)cc13)-c1ccc(C3CCCCC3)cc1CC2 | 118 to 121 °C
63 | CC(C)c1cc2c(c3c1C(=O)NS3(=O)=O)OCO2 | 226 to 228 °C
64 | CC(=O)C(C)(C)CS(=O)(=O)c1ccccc1 | 56 to 58 °C
65 | Cc1cc(I)ccc1Nc1c(-c2nnn[nH]2)ccc(F)c1F | 83.4 to 88.7 °C
66 | Clc1ccc(CO[C@H]2CO[C@@H](c3ccccc3)OC2)cc1Cl | 77 to 78 °C
67 | O=C1NC(=O)c2ccc(-c3ccc(F)cc3)cc2/C1=C/Nc1ccc(CN2CCCC2)cc1 | 152 to 153 °C
68 | CCC(C)(C)c1ccc(OCCCCNC(=O)CS(=O)(=O)c2ccc([N+](=O)[O-])cc2)c(C(C)(C)CC)c1 | 36 to 37 °C
69 | CCNC(=O)n1nc(Oc2ccc(F)cc2[N+](=O)[O-])cc1C | 81 to 84 °C
70 | CC(=O)NC[C@H]1CN(c2ccc(N3CCC4(CC3)CC4(C#N)C#N)cc2)C(=O)O1 | 172 to 174 °C
71 | CC(=O)NC[C@H]1CN(c2cc(F)c(N3CCC(n4nnc(N5CCN(C#N)CC5)n4)CC3)c(F)c2)C(=O)O1 | 198 to 200 °C
72 | CC(=O)c1c(N(C)C)nn2ccccc12 | 59.5 to 60 °C
73 | COc1cc(OC)c2c(c1OC)CCC(C(=O)Cc1cccc(F)c1)C2C#N (configuration not stated) | 58 to 62 °C
74 | COc1cc2ccccc2c(C2NCCc3ccccc32)c1O (configuration not stated) | 154 to 156 °C
75 | Cc1cccc2c1C(=O)N(C)CC(=O)N2 | 200 to 202 °C
76 | Cc1nc(N2CCOCC2)nc(C)c1-c1cccc2c1OC[C@H]2Nc1ccc2c(c1)OC[C@H]2CC(=O)O | 168 °C
77 | O=Cc1ccc2c(c1)S(=O)c1ccccc1CC2 (configuration not stated) | 158 to 160 °C
78 | CCOC(=O)c1cnc2sc3c(n12)CCCCC3 | 73 to 74 °C

Row | Compound | melting point
79 | O=P1(NCCBr)OCCCN1CCBr (configuration not stated) | 58 to 59 °C
80 | Cc1cc(C)c(N)cn1 | 62 to 64 °C
81 | CCOC(=O)N1CCC(Nc2nc3ccccc3n2Cc2csc(C)n2)CC1 | 160 °C
82 | Fc1ccc(-c2cc(Br)sc2-c2ccc(F)cc2)cc1 | 91 to 93 °C
83 | CC(C)(C)OC(=O)Nc1ccc(-c2ccccc2F)cc1NC(=O)CC(=O)c1sccc1C#N | 63 to 66 °C
84 | CC(CCCl)=C1SC(=S)N(CC(=O)O)C1=O | 205 to 207 °C
85 | COCc1nc(C(C)(C)O)c(C(=O)OCc2oc(=O)oc2C)n1Cc1ccc(-c2ccccc2-c2nnn[nH]2)cc1 | 138 to 140 °C
86 | C#CC1=Cc2cc(Cl)ccc2Sc2ccc(SC)cc21 | 100 to 103 °C
87 | CCCCCCCCCCCCOS(=O)(=O)O | 72 °C
88 | O=C(Nc1c(Cl)cncc1Cl)c1ccc(OC(F)F)c2oc3ccc(C(F)(F)F)cc3c12 | 228 °C
89 | COC(=O)[C@H](CCSC)NC(=O)c1ccc(NC(Cn2ccnc2)c2ccc(F)cc2)cc1-c1ccc(F)cc1 (some centres not stated) | 94 to 98 °C
90 | Cn1cc(CC(=O)O)c(OCc2cc(OCc3ccc4ccccc4n3)no2)n1 | 124 to 125 °C
91 | CC(C)(C)OC(=O)COC(=O)CCc1c(OCC(=O)OC(C)(C)C)ccc2ccc(OCC(=O)OC(C)(C)C)cc12 | 118 °C
92 | O=c1ccc2c(-n3cnc(CO)c3)nccc2[nH]1 | 259 to 261 °C
93 | O=C1C(=O)c2ccccc2C2=C1SCC1(CCN(CC(O)COc3ccc4cc(Br)ccc4c3)CC1)O2 (configuration not stated) | 183 to 184 °C
94 | COCc1cc2ccccc2oc1=Nc1ccccc1 | 64 to 65 °C
95 | CCCc1c2c(c(N)c3c(=O)cc(C(=O)OCC)oc13)CC(C(=O)OCC)CC2 (configuration not stated) | 102 to 103 °C
96 | O=C(O)Cc1ccc(C2CCCC(=O)C2)cc1 (configuration not stated) | 96 °C
97 | CC1(C)Oc2ccc(C(=O)CCl)cc2S1 | 84 to 86 °C
98 | C=CS(=O)(=O)Nc1c(C)cc(C)cc1C | 117 to 120 °C
99 | NS(=O)(=O)c1ccc(-n2nc(C(F)(F)F)cc2-c2ccc(-c3ccco3)cc2)c(F)c1 | 174 °C
100 | COCCCOc1cc(CBr)ccc1OC | 50 to 51 °C
101 | CCS(=O)(=O)NC(=O)CCCCC1CCSS1 (configuration not stated) | 98 to 100 °C
102 | CS(=O)(=O)c1ccc(C2=C(c3ccccc3)C(=O)C2(Cl)Cl)cc1 | 124 to 125 °C

Reference: a melting point compilation (Tetko et al.; mined from patent text by program, amines drawn as free bases though some values may be those of a salt)
